Laboratory results published in ChEMBL document CHEMBL1201862, “PubChem BioAssay data set” (2004).
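Interpolation was linear, between the two tested concentrations surrounding the appropriate level; five concentrations were tested over 48 hours in 96-well plates. Abbreviation: GI50, concentration required for 50% inhibition of growth.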 Calls of active or inactive are those of the source. Rule as the data show it: active = GI50 up to about 1.1 µM and inactive = higher.

Assays:
Assay in all cases: DTP human tumour cell line panel, 48 h
[1] = tested on: NCI-H226
[2] = tested on: OVCAR-8
[3] = tested on: HOP-92
[4] = tested on: NCI-H460
[5] = tested on: NCI-H23
[6] = tested on: LOX IMVI
[7] = tested on: T47D
[8] = tested on: 786-0
[9] = tested on: NCI-H522
[10] = tested on: KM12
[11] = tested on: COLO 205
[12] = tested on: MOLT-4
[13] = tested on: SF-539
[14] = tested on: EKVX
[15] = tested on: CCRF-CEM
[16] = tested on: UO-31
[17] = tested on: OVCAR-4
[18] = tested on: DU-145
[19] = tested on: A549
[20] = tested on: MDA-MB-435

Measured: GI50

CC(C)C1(O)C(=O)N(c2c(F)c(F)c(F)c(F)c2F)C(=S)N1CCSc1ccccc1 (stereo not given)
inactive: [1] 20.7 µM | [2] 19 µM | [3] 9.53 µM | [4] 19.2 µM | [5] 18.1 µM | [6] 16.5 µM | [7] 16.2 µM | [8] 19.1 µM | [9] 16.6 µM | [10] 17.1 µM | [11] 17.9 µM | [12] 15.1 µM | [13] 20.1 µM | [14] 18.8 µM | [15] 13.9 µM | [16] 15.5 µM | [17] 15.2 µM | [18] 17.1 µM | [19] 15.3 µM | [20] 18.2 µM

CCOC(=O)/C=C(\C(=O)OCC)n1ccc(=O)n(Cc2cnnn2CCCCOC(C)=O)c1=O
inactive: [1] 17.6 µM | [2] 5.08 µM | [3] 2.57 µM | [4] 8.53 µM | [5] 13.2 µM | [6] 4.09 µM | [7] 4.07 µM | [8] 3.46 µM | [9] 1.53 µM | [10] 15.9 µM | [11] 1.3 µM | [12] 2.49 µM | [13] 2.03 µM | [14] 11 µM | [15] 1.99 µM | [16] 21.7 µM | [17] 12.3 µM | [18] 18.6 µM | [19] 19.9 µM | [20] 6.85 µM

CC(C)C(=O)Nc1cc(C(F)(F)F)ccc1[N+](=O)[O-]
inactive: [1] > 100 µM | [2] > 100 µM | [3] > 100 µM | [4] 72.6 µM | [5] > 100 µM | [6] > 100 µM | [7] 81.5 µM | [8] > 100 µM | [9] > 100 µM | [10] > 100 µM | [11] > 100 µM | [12] > 100 µM | [13] > 100 µM | [14] > 100 µM | [15] > 100 µM | [16] > 100 µM | [17] > 100 µM | [18] > 100 µM | [19] > 100 µM | [20] > 100 µM

Cc1cc(C)c(S(=O)(=O)N(CCCCCCN)OCCCN)c(C)c1
inactive: [1] 19.6 µM | [2] 14 µM | [3] 15.7 µM | [4] 15.6 µM | [5] 17.1 µM | [6] 12.2 µM | [7] 17.7 µM | [8] 16 µM | [9] 13 µM | [10] 15.1 µM | [11] 17.3 µM | [12] 15.3 µM | [13] 18.2 µM | [14] 15.3 µM | [15] 16.1 µM | [16] 19.5 µM | [17] 20.2 µM | [18] 16.1 µM | [19] 70 µM | [20] 62.1 µM
